The target in data set [1] is DNA topoisomerase 2-alpha (Homo sapiens) (UniProt P11388). Briefly: Inhibition of human DNA topoisomerase 2alpha-mediated relaxation of supercoiled pRYG DNA at 50 uM after 30 mins by […].
For data set [2] the target is unchanged. Briefly: Inhibition of human DNA topoisomerase 2alpha-mediated relaxation of supercoiled pRYG DNA at 10 uM after 30 mins by […].
A short description of data set [3]: Cytotoxicity against human Molt4/C8 cells. To be noted: MOLT-4. Type of data set: functional, cell-based.
For data set [4], the target named is DNA topoisomerase 2-alpha (Homo sapiens) (UniProt P11388). Put plainly: Inhibition of human DNA topoisomerase 2alpha-mediated relaxation of supercoiled pRYG DNA at 25 uM after 30 mins by […].
Data set [5] has the same target. Put plainly: Inhibition of human DNA topoisomerase 2alpha-mediated relaxation of supercoiled pRYG DNA at 100 uM after 30 mins by agarose gel electrophoresis.
For another data set, the system named is CCRF-CEM. Briefly: Cytotoxicity against human CEM cells. The format is functional, cell-based.
The test system of a further data set is L1210. Put plainly: Cytotoxicity against mouse L1210 cells. Type of data set: functional, cell-based.
Data set [6] concerns Mus musculus. Briefly: Neurotoxicity in mouse at 100 mg/kg, ip after 0.5 hrs. To be noted: in vivo. On the set-up: dose 100 mg/kg, route intraperitoneal. The format is toxicity, organism-based.
For data set [7], the system named is Mus musculus. Put plainly: Neurotoxicity in mouse at 100 mg/kg, ip after 4 hrs. Type of data set: toxicity, organism-based. On the set-up: dose 100 mg/kg, route intraperitoneal. To be noted: in vivo.
Data set [8] has as its system Mus musculus. Put plainly: Neurotoxicity in mouse at 30 mg/kg, ip after 4 hrs. On the set-up: dose 30 mg/kg, route intraperitoneal. Type of data set: toxicity, organism-based. To be noted: in vivo.
Data set [9] deals with Mus musculus. Put plainly: Neurotoxicity in mouse at 300 mg/kg, ip after 4 hrs. Type of data set: toxicity, organism-based. On the set-up: dose 300 mg/kg, route intraperitoneal. To be noted: in vivo.
Data set [10] concerns Mus musculus. Put plainly: Neurotoxicity in mouse at 300 mg/kg, ip after 0.5 hrs. Type of data set: toxicity, organism-based. On the set-up: dose 300 mg/kg, route intraperitoneal. To be noted: in vivo.

Active and inactive are the calls of the source. The calls are words filed in the database; no cut-off is given here.

DNA topoisomerase 2-alpha (Homo sapiens), sequence (P11388 whole entry): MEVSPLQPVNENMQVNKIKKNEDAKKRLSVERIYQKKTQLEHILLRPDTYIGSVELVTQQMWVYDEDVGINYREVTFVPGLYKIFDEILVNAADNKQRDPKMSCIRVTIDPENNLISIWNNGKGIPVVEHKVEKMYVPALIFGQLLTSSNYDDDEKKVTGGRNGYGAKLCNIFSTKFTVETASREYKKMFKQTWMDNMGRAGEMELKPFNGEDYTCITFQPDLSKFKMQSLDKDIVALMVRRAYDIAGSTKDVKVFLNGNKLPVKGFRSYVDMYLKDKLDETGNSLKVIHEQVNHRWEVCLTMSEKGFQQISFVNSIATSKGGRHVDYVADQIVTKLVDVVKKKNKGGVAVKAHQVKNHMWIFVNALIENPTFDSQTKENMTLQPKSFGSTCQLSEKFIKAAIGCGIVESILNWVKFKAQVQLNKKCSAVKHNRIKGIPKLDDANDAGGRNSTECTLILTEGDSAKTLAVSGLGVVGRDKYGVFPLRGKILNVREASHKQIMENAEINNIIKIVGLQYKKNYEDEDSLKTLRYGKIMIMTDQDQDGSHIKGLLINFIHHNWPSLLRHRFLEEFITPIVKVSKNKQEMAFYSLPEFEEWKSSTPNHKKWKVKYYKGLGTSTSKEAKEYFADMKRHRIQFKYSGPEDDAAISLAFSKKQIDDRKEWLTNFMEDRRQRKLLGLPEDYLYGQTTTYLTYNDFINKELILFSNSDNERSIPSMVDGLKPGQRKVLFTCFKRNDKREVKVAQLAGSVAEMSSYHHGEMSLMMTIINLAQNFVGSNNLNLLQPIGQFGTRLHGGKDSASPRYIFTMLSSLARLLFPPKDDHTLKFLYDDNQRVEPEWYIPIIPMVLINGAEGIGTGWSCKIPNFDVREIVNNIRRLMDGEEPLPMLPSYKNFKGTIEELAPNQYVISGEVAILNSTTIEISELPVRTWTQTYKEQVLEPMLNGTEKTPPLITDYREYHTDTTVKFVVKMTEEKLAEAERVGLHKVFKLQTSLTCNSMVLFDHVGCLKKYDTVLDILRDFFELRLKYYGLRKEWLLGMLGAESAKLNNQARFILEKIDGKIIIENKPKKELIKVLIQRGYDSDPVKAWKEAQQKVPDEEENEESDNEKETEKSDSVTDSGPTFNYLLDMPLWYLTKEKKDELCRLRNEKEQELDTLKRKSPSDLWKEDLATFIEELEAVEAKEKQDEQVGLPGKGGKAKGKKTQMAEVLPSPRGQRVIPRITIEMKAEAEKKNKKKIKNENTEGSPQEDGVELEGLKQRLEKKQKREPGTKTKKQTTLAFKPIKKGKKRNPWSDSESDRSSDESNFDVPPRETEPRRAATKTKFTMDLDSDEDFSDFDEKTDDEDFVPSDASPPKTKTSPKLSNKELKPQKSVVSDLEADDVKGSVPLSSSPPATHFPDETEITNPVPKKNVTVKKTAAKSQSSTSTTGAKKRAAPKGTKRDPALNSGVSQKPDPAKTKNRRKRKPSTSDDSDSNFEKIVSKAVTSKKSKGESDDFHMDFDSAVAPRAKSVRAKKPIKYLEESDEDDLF

On to `CCOC(=O)[C@H](CCSC)NC(=O)/C=C\C(=O)N1C/C(=C\c2ccc([N+](=O)[O-])cc2)C(=O)/C(=C/c2ccc([N+](=O)[O-])cc2)C1`, for which the outcome in data set [1], in data set [2], in data set [4] and in data set [5] was Active. Moreover, the values for the IC50 (in [3]; with CCRF-CEM; in the data set with L1210) were 0.25 µM, 0.19 µM and 0.58 µM, respectively.
As to `CCOC(=O)[C@H](CC(C)C)NC(=O)/C=C\C(=O)N1C/C(=C\c2ccc([N+](=O)[O-])cc2)C(=O)/C(=C/c2ccc([N+](=O)[O-])cc2)C1`, the Activity entry with Mus musculus [6] is “Non-toxic”. Further, the outcome in data set [1], in data set [2] and in [4] was inactive. Further, the 50% inhibitory concentration (IC50) in data set [3] came out at 0.21 µM; in the data set on CCRF-CEM, 0.17 µM; with L1210 it was 0.24 µM. In data set [5], the outcome was Active.
With `CCOC(=O)CNC(=O)/C=C\C(=O)N1C/C(=C\c2ccccc2)C(=O)/C(=C/c2ccccc2)C1`, the outcome in data set [1], in data set [2], in data set [4] and in data set [5] was inactive. In addition, the IC50 was 1.4 µM in data set [3], 1.3 µM with CCRF-CEM and 6.1 µM with L1210.
As for `CCOC(=O)[C@H](Cc1ccc(O)cc1)NC(=O)/C=C\C(=O)N1C/C(=C\c2ccc([N+](=O)[O-])cc2)C(=O)/C(=C/c2ccc([N+](=O)[O-])cc2)C1`, the outcome in [1], in data set [4] and in [5] was Active. Further, the result in data set [2] was inactive. In addition, the concentration for half-maximal inhibition (IC50) was determined as 0.28 µM in data set [3], 0.17 µM with CCRF-CEM and 0.6 µM in the data set with L1210.
Regarding `CCOC(=O)[C@H](C)NC(=O)/C=C\C(=O)N1C/C(=C\c2ccc([N+](=O)[O-])cc2)C(=O)/C(=C/c2ccc([N+](=O)[O-])cc2)C1`, the result in data set [1] and in data set [5] was Active. For the same compound, the outcome in [2] and in data set [4] was inactive. The IC50 was determined as 0.24 µM in data set [3], 0.083 µM with CCRF-CEM and 0.58 µM with L1210.
Regarding `CCOC(=O)[C@H](Cc1c[nH]c2ccccc12)NC(=O)/C=C\C(=O)N1C/C(=C\c2ccc([N+](=O)[O-])cc2)C(=O)/C(=C/c2ccc([N+](=O)[O-])cc2)C1`, the result in data set [1], in [2], in data set [4] and in [5] was Active. The IC50 in data set [3] stood at 0.27 µM; with CCRF-CEM, 0.19 µM; in the data set on L1210, 0.62 µM.
`C=CC(=O)N1C/C(=C\c2ccc([N+](=O)[O-])cc2)C(=O)/C(=C/c2ccc([N+](=O)[O-])cc2)C1` had an IC50 in data set [3] of 0.15 µM.
On the same count and under the same terms, for `C=CC(=O)N1C/C(=C\c2ccccc2)C(=O)/C(=C/c2ccccc2)C1` the value was 1.42 µM.
Regarding `CCOC(=O)[C@H](Cc1ccccc1)NC(=O)/C=C\C(=O)N1C/C(=C\c2ccc([N+](=O)[O-])cc2)C(=O)/C(=C/c2ccc([N+](=O)[O-])cc2)C1`, the result in [1], in data set [2], in data set [4] and in data set [5] was Active. Also, the IC50 in data set [3] is 0.24 µM; in the data set on CCRF-CEM, 0.13 µM; in the data set on L1210, 0.2 µM.
Consider `O=C1/C(=C/c2ccc([N+](=O)[O-])cc2)CNC/C1=C\c1ccc([N+](=O)[O-])cc1`, for which the IC50 is 8.28 µM in data set [3] and 32.1 µM with L1210.
Turning to `CCOC(=O)[C@@H](NC(=O)/C=C\C(=O)N1C/C(=C\c2ccc([N+](=O)[O-])cc2)C(=O)/C(=C/c2ccc([N+](=O)[O-])cc2)C1)C(C)C`, the result in data set [1], in data set [4] and in data set [5] was Active. In addition, the outcome in [2] was inactive. Besides, the results for the IC50 (in data set [3]; in the data set on CCRF-CEM; in the data set with L1210) were 0.22 µM, 0.17 µM and 0.44 µM, respectively.
Regarding `CCOC(=O)[C@H](Cc1ccc(O)cc1)NC(=O)/C=C\C(=O)N1C/C(=C\c2ccccc2)C(=O)/C(=C/c2ccccc2)C1`, the outcome in [1], in [2] and in data set [4] was inactive. Moreover, the IC50 is 0.57 µM in data set [3], 0.35 µM in the data set on CCRF-CEM and 4.6 µM with L1210. Moreover, the result in [5] was Active.
In the case of `CCOC(=O)[C@H](CC(C)C)NC(=O)/C=C\C(=O)N1C/C(=C\c2ccccc2)C(=O)/C(=C/c2ccccc2)C1`, the result in data set [1], in data set [2], in data set [4] and in data set [5] was inactive. The IC50 in data set [3] is 1.1 µM; with CCRF-CEM, 1.2 µM; in the data set on L1210 it was 4.7 µM.
For the compound `CCOC(=O)CNC(=O)/C=C\C(=O)N1C/C(=C\c2ccc([N+](=O)[O-])cc2)C(=O)/C(=C/c2ccc([N+](=O)[O-])cc2)C1`, the Activity result with Mus musculus [7], in the data set with Mus musculus [8], in the data set with Mus musculus [9] and with Mus musculus [10] was “Non-toxic” each time. Besides, the outcome in [1], in data set [2], in data set [4] and in data set [5] was Active. Besides, the IC50 in data set [3] was determined as 0.23 µM; with CCRF-CEM it was 0.11 µM; with L1210 it was 0.84 µM.

A word on the IC50: it is the concentration that inhibits the measured activity by half. Higher therefore signals weaker potency.
